Measurements published in ChEMBL document CHEMBL6103541, “Ringing medicinal chemistry: The importance of 3-membered rings in drug discovery” (Bioorg Med Chem, 2024).
Converted amounts (≈) assume the structure as drawn. *1 amine or outer side, *2 acyl side, *3 side chain or, on linkers, in order; H or OH if unused. Where a SMILES comes first, the peptide text is derived from it. [ ]: non-standard residue; d: D form. The star is where a group is joined. X1 = CCCC(N[*:1])C(=O)C(=O)[*:2]; Chg = N[C@H](C(=O)O)C1CCCCC1; Phg = N[C@H](C(=O)O)c1ccccc1; Boc = CC(C)(C)OC(=O)*

Columns and labels:
[1] = target: T1, NS3 protease (Hepacivirus C, UniProt C1KIQ2); assay: Inhibition of Hepatitis C virus genotype 1b NS3 protease; set-up: species or system Hepacivirus hominis
T1 sequence (C1KIQ2 whole entry): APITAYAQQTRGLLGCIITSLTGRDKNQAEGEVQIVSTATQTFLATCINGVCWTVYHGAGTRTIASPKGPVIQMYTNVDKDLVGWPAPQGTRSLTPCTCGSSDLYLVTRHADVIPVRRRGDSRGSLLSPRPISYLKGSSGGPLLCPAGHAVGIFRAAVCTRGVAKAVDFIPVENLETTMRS

[2] = target: T1, NS3 protease; assay: Binding affinity to Hepatitis C virus genotype 1a NS3 protease assessed as inhibition constant; set-up: species or system Hepacivirus hominis
[3] = target: T1, NS3 protease; assay: Binding affinity to Hepatitis C virus genotype 1b NS3 protease assessed as inhibition constant; set-up: species or system Hepacivirus hominis
[4] = target: T1, NS3 protease; assay: Binding affinity to HCV NS3 protease assessed as inhibition constant; set-up: species or system Hepacivirus hominis
[5] = test system: Hepatitis C virus; assay: Antiviral activity against Hepatitis C virus infected in human Huh7.5 cells assessed as reduction in viral replication; type: functional, Hepacivirus hominis
[6] = target: Human immunodeficiency virus type 1 reverse transcriptase (Human immunodeficiency virus 1, UniProt Q72547); assay: Inhibition of HIV-1 reverse transcriptase
[7] = test system: Staphylococcus epidermidis; assay: microbe, parasite or virus in culture
Description: Antibacterial activity against Staphylococcus epidermidis

[8] = test system: Staphylococcus saprophyticus; assay: microbe, parasite or virus in culture
Description: Antibacterial activity against Staphylococcus saprophyticus

[9] = test system: Staphylococcus aureus; assay: microbe, parasite or virus in culture
Description: Antibacterial activity against Methicillin-resistant staphylococcus aureus

[10] = test system: BT-549; assay: Cytotoxicity against human BT-549 cells assessed as inhibition of cell growth incubated for 72 hrs by MTT assay; type: functional, cell-based; conditions: BT-549, 72 h
[11] = test system: MDA-MB-231; assay: Antiproliferative activity against human MDA-MB-231 cells assessed as reduction in cell viability incubated for 72 hrs by MTT assay; type: functional, cell-based; conditions: MDA-MB-231, 72 h
[12] = Inhibition of 20s constitutive proteasome beta-5c (unknown origin); set-up: species or system Homo sapiens
[13] = target: Vascular endothelial growth factor receptor 1 (Homo sapiens, UniProt P17948); assay: Inhibition of VEGFR1 (unknown origin)
Sequence of Vascular endothelial growth factor receptor 1 (P17948 whole entry): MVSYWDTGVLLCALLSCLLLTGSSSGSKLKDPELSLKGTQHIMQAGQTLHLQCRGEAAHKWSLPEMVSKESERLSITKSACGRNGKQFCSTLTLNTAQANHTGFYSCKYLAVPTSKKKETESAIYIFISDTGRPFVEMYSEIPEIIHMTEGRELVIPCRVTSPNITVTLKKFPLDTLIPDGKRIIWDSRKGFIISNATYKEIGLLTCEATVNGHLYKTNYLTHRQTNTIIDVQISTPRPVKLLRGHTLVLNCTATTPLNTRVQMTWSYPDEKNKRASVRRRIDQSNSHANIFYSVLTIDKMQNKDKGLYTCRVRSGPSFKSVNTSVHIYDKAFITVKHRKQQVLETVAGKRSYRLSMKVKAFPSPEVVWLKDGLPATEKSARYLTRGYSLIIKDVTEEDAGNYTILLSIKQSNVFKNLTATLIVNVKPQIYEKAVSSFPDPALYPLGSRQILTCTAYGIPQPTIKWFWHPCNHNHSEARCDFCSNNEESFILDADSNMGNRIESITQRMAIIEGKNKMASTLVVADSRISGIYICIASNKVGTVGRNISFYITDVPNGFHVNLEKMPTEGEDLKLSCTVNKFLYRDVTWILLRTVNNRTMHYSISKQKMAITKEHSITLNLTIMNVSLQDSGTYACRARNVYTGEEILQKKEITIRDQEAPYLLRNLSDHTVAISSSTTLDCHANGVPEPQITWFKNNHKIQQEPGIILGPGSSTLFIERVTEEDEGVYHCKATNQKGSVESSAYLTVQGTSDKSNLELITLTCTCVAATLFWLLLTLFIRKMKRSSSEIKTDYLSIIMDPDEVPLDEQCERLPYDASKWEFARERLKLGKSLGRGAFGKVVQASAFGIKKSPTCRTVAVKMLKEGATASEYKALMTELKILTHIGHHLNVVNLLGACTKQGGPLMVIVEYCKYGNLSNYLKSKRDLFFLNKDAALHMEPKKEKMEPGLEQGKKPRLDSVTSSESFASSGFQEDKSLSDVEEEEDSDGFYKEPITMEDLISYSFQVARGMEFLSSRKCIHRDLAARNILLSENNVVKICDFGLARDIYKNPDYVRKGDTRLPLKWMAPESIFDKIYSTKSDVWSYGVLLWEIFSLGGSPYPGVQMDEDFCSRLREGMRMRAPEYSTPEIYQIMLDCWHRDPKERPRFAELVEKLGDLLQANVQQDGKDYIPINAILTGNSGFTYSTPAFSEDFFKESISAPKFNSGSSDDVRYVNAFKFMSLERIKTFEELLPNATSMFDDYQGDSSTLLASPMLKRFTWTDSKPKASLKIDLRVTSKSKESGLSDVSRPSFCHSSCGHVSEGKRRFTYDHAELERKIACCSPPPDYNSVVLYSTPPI

[14] = target: Vascular endothelial growth factor receptor 3 (Homo sapiens, UniProt P35916); assay: Inhibition of VEGFR3 (unknown origin)
Sequence of Vascular endothelial growth factor receptor 3 (P35916 whole entry): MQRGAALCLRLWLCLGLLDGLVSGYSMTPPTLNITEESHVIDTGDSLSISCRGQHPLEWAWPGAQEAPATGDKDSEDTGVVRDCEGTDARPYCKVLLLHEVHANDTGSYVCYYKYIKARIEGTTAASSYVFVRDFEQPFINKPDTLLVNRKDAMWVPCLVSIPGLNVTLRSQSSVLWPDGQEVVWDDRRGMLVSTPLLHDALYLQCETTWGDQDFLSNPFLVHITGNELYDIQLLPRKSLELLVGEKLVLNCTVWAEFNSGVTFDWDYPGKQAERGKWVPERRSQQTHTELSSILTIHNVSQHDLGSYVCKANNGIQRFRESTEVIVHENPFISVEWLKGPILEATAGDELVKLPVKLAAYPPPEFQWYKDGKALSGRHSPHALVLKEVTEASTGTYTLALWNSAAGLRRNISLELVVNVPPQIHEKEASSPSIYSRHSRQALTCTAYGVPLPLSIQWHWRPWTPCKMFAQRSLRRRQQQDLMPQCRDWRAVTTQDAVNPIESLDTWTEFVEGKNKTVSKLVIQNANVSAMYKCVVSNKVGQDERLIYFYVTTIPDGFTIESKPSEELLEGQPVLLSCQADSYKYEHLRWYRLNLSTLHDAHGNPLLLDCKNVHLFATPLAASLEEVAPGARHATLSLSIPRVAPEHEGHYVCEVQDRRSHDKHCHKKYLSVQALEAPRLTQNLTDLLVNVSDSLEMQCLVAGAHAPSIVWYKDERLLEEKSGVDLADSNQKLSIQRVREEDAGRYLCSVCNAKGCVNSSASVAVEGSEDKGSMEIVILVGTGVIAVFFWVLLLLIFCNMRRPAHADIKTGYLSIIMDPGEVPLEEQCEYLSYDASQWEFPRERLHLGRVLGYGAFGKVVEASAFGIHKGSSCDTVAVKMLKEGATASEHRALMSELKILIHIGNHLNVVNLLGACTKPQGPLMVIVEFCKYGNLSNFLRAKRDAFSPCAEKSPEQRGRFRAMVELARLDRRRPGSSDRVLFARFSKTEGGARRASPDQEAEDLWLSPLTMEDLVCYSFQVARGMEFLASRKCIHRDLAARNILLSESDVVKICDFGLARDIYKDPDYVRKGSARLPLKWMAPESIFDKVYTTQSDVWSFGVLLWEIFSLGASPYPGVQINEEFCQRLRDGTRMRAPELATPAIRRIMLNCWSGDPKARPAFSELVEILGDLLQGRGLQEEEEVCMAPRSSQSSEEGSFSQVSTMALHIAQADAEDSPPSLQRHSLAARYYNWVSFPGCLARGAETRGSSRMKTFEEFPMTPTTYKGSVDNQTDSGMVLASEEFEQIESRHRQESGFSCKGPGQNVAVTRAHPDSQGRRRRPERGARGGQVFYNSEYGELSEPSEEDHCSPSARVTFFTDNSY

[15] = target: Fibroblast growth factor receptor 1 (Homo sapiens, UniProt P11362); assay: Inhibition of FGFR1 (unknown origin)
Sequence of Fibroblast growth factor receptor 1 (P11362 whole entry): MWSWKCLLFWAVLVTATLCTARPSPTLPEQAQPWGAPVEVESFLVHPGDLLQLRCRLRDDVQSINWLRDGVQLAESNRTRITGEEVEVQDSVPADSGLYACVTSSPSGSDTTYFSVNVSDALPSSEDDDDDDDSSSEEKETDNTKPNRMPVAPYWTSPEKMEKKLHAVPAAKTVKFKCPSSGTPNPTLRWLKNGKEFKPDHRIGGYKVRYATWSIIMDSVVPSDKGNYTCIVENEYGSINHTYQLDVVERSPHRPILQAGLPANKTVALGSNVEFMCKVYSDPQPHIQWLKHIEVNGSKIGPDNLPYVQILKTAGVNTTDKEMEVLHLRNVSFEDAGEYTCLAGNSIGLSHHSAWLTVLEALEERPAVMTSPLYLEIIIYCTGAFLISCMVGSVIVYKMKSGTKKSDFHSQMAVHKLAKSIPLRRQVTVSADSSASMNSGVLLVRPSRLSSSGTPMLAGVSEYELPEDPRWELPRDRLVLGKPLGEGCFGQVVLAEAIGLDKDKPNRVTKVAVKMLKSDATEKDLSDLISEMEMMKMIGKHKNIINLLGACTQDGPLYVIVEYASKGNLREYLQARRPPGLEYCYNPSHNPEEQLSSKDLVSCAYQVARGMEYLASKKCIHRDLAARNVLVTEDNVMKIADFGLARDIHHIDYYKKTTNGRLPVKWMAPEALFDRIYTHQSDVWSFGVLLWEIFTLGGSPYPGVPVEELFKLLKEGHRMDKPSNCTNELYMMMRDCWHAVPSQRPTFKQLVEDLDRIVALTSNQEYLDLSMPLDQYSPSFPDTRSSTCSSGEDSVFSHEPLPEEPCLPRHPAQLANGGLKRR

[16] = target: Fibroblast growth factor receptor 3 (Homo sapiens, UniProt P22607); assay: Inhibition of FGFR3 (unknown origin)
[17] = target: Fibroblast growth factor receptor 4 (Homo sapiens, UniProt P22455); assay: Inhibition of FGFR4 (unknown origin)
Sequence of Fibroblast growth factor receptor 4 (P22455 whole entry): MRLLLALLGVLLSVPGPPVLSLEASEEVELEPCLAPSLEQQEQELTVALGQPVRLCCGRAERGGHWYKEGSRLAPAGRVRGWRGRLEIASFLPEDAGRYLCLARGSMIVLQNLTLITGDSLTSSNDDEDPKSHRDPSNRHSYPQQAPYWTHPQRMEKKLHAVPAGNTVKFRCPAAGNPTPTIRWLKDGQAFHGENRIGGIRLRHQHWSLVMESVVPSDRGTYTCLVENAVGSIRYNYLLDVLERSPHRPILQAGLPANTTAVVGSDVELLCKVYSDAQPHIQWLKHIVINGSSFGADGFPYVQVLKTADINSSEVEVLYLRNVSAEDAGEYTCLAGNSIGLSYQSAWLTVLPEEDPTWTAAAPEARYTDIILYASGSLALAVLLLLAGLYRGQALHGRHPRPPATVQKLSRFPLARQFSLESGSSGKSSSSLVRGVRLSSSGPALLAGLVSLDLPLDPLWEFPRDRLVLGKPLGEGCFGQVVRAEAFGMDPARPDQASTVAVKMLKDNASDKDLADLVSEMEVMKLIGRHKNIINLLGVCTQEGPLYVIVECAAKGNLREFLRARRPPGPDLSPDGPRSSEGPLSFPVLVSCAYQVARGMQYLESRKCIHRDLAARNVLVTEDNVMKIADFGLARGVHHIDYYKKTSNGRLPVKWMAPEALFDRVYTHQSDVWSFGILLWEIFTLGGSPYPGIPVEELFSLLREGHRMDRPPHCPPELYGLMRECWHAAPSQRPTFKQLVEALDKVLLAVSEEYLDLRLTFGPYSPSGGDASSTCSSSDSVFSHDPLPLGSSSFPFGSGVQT

[18] = Inhibition of PDGFR (unknown origin); set-up: species or system Homo sapiens
[19] = test system: SK-N-FI; assay: Antiproliferative activity against human SK-N-FI cells; type: functional, cell-based
[20] = target: Tubulin; assay: Inhibition of tubulin polymerization (unknown origin); type: protein-complex assay, Homo sapiens
[21] = test system: MCF7; assay: Antiproliferative activity against human MCF7 cells assessed as reduction in cell viability incubated for 48 hrs by MTT assay; type: functional, cell-based; conditions: MCF7, 48 h
[22] = test system: HPAC; assay: Antiproliferative activity against human HPAC cells assessed as inhibition of cell growth measured after 72 hrs by MTT assay; type: functional, cell-based
[23] = test system: Capan-2; assay: Antiproliferative activity against human Capan-2 cells assessed as reduction in cell viability incubated for 72 hrs by MTT assay; type: functional, cell-based; conditions: Capan-2, 72 h
[24] = Half life in Wistar rat at 10 mg/kg, iv measured for 24 hrs by LC-MS/MS analysis; type: ADME, organism-based; conditions: in vivo
[25] = Volume of distribution at steady state in Wistar rat at 10 mg/kg, iv measured for 24 hrs by LC-MS/MS analysis; type: ADME, organism-based; conditions: in vivo
[26] = test system: SK-BR-3; assay: Antiproliferative activity against human SK-BR-3 cells; type: functional, cell-based
[27] = Inhibition of LPS-induced NFkappaB activation in mouse RAW264.7 cells assessed as inhibition of IKKalpha phosphorylation level incubated for 1 hrs by Western blot analysis; type: cell-based; conditions: RAW264.7, 1 h
[28] = test system: Staphylococcus aureus; assay: Antibacterial activity against Staphylococcus aureus ATCC 25923 assessed as bacterial growth inhibition measured after 18 hrs by CLSI protocol based two-fold serial microdilution method; type: functional
[29] = test system: Streptococcus pneumoniae; assay: Antibacterial activity against Streptococcus pneumoniae ATCC 49619 assessed as inhibition of bacterial growth incubated for 24 hrs by CLSI protocol based broth micro-dilution method; type: functional
[30] = test system: Pseudomonas aeruginosa; assay: Antibacterial activity against Pseudomonas aeruginosa ATCC 15442 assessed as reduction in bacterial cell growth incubated for 18 hrs by two fold serial microdilution method; type: functional
[31] = test system: Escherichia coli; assay: Antibacterial activity against Escherichia coli assessed as reduction in bacterial growth by broth microdilution method; type: functional
[32] = test system: Staphylococcus aureus; assay: Antibacterial activity against Staphylococcus aureus; type: functional
[33] = test system: Thermus thermophilus; assay: Antibacterial activity against Thermus thermophilus; type: functional, organism-based
[34] = test system: SCaBER; assay: Antiproliferative activity against human SCaBER cells; type: functional, cell-based
[35] = test system: J82; assay: Antiproliferative activity against human J82 cells; type: functional, cell-based
[36] = Inhibition of PK1 (unknown origin); set-up: species or system Homo sapiens
[37] = test system: Staphylococcus aureus; assay: In vivo antibacterial activity against Staphylococcus aureus infected mouse model assessed as curative dose; type: functional
[38] = test system: Staphylococcus aureus; assay: In vivo antibacterial activity against streptomycin-resistant Staphylococcus aureus infected mouse model assessed as curative dose; type: functional
[39] = test system: Staphylococcus aureus; assay: In vivo antibacterial activity against erythromycin-resistant Staphylococcus aureus infected mouse model assessed as curative dose; type: functional

Question: Which results are given for `COc1ccc2c(O[C@@H]3C[C@H]4C(=O)N[C@]5(C(=O)O)C[C@H]5/C=C/CCCCC[C@H](NC(=O)OC5CCCC5)C(=O)N4C3)cc(-c3csc(NC(C)C)n3)cc2c1`?
Answer: IC50 [1]: 3 nM; Ki [2]: 0.3 nM; Ki [3]: 3 nM

Question: Which results are given for `CCCC(NC(=O)[C@H](CC(C)C)NC(=O)[C@@H](NC(=O)OC(C)(C)C)C1CCCCC1)C(=O)C(=O)NCC(=O)N[C@H](C(N)=O)c1ccccc1` (some centres not stated) (Boc-[Chg]L[X1]G[Phg]-NH2)?
Answer: Ki [4]: 66 nM; EC90 [5]: 200 nM

Question: With `CCN1c2ncccc2C(=O)Nc2c(C)ccnc21` as the compound, how does the Ki [4] read?
Answer: 10 nM

Question: And the IC50 [6]?
Answer: 30 nM

Question: Which results are given for `O=C(O)c1cn(C2CC2)c2cc(N3CCNCC3)c(F)cc2c1=O` [CIPROFLOXACIN]?
Answer: MIC [7]: < 1 µg/mL; MIC [8]: < 1 µg/mL; MIC [9]: 0.12 µg/mL (≈ 0.362 µM)

Question: Which IC50 [1] does the source give for `COc1ccc2c(O[C@@H]3C[C@H]4C(=O)N[C@]5(C(=O)NS(=O)(=O)C6CC6)C[C@H]5/C=C\CCCCN(C)C(=O)[C@@H]4C3)cc(-c3nc(C(C)C)cs3)nc2c1C` here?
Answer: 8 nM

Question: What about the Ki [2] of the same compound?
Answer: 0.5 nM

Question: And the Ki [3]?
Answer: 0.4 nM

Question: Which IC50 [10] does the source give for `CC(C)C[C@H](NC(=O)[C@H](CCc1ccccc1)NC(=O)CN1CCOCC1)C(=O)N[C@@H](Cc1ccccc1)C(=O)N[C@@H](CC(C)C)C(=O)[C@@]1(C)CO1` [CARFILZOMIB] here?
Answer: 10.8 nM

Question: And the IC50 [11]?
Answer: 22.4 nM

Question: What about the IC50 [12] of the same compound?
Answer: 6 nM

Question: For `COc1cc2nccc(Oc3ccc(NC(=O)NC4CC4)c(Cl)c3)c2cc1C(N)=O` [LENVATINIB], which IC50 [13] is on record?
Answer: 2 nM

Question: What about the IC50 [14] of the same compound?
Answer: 2 nM

Question: What about the IC50 [15] of the same compound?
Answer: 27 nM

Question: And the IC50 [16]?
Answer: 27 nM

Question: And the IC50 [17]?
Answer: 27 nM

Question: What about the IC50 [18] of the same compound?
Answer: 29 nM

Question: For `C/C(=C\c1csc(C)n1)[C@@H]1C[C@@H]2O[C@]2(C)CCC[C@H](C)[C@H](O)[C@@H](C)C(=O)C(C)(C)[C@@H](O)CC(=O)N1` [IXABEPILONE], which IC50 [19] is on record?
Answer: 10 nM

Question: With `COC[C@H](NC(=O)c1cnc(C)s1)C(=O)N[C@@H](COC)C(=O)N[C@@H](Cc1ccccc1)C(=O)[C@@]1(C)CO1` [OPROZOMIB] as the compound, how does the IC50 [10] read?
Answer: 50 nM

Question: And the IC50 [11]?
Answer: 79 nM

Question: What about the IC50 [12] of the same compound?
Answer: 36 nM

Question: With `C/C(=C\c1csc(C)n1)[C@@H]1C[C@@H]2O[C@]2(C)CCC[C@H](C)[C@H](O)[C@@H](C)C(=O)C(C)(C)[C@@H](O)CC(=O)O1` [PATUPILONE] as the compound, how does the IC50 [20] read?
Answer: 1.8 nM

Question: And the IC50 [19]?
Answer: 10 nM

Question: Which IC50 [21] does the source give for `C[C@]12C[C@H]3S[C@H]3C[C@@H]1CC[C@@H]1[C@@H]2CC[C@]2(C)[C@@H](O)CC[C@@H]12` [EPITIOSTANOL] here?
Answer: 30 nM

Question: Which IC50 [22] does the source give for `CCn1c(-c2cc(N3CCN(C)CC3)cnc2[C@H](C)OC)c2c3cc(ccc31)-c1csc(n1)C[C@H](NC(=O)[C@H]1C[C@@H]1C)C(=O)N1CCC[C@H](N1)C(=O)OCC(C)(C)C2` here?
Answer: 1.2 nM

Question: And the IC50 [23]?
Answer: 1.4 nM

Question: With `CC[C@@H]1C(=O)N(C)c2cnc(Nc3ccc(C(=O)N[C@H]4CC[C@H](N5CCN(CC6CC6)CC5)CC4)cc3OC)nc2N1C(C)C` [VOLASERTIB] as the compound, how does the half-life [24] read?
Answer: > 110 h

Question: And the Vd [25]?
Answer: > 4000 L

Question: With `C/C1=C/C[C@@H](/C(C)=C/c2csc(C)n2)OC(=O)C[C@H](O)C(C)(C)C(=O)[C@H](C)[C@@H](O)[C@@H](C)CCC1` [EPOTHILONE D] as the compound, how does the IC50 [19] read?
Answer: 46 nM

Question: Which results are given for `CC[C@@H]1C(=O)N(C)c2cnc(Nc3ccc(C(=O)NC4CCN(C)CC4)cc3OC)nc2N1C1CCCC1` [BI-2536]?
Answer: half-life [24]: < 50 h; Vd [25]: 750 L

Question: Which IC50 [26] does the source give for `COc1cc2cc(c1Cl)N(C)C(=O)C[C@H](OC(=O)[C@@H](C)N(C)C(=O)CCS)[C@]1(C)O[C@H]1[C@H](C)[C@@H]1C[C@@](O)(NC(=O)O1)[C@H](OC)/C=C/C=C(\C)C2` here?
Answer: 1.1 nM

Question: Which IC50 [27] does the source give for `CC1=C(CO)C(=O)O[C@@H]([C@@H](C)[C@H]2CC[C@H]3[C@@H]4C[C@H]5O[C@]56[C@@H](O)C=CC(=O)[C@]6(C)[C@H]4CC[C@]23C)C1` [WITHAFERIN A] here?
Answer: 250 nM

Question: What does the source list for `CCn1cc(C(=O)O)c(=O)c2cc(F)c(N3CCNCC3)cc21` [NORFLOXACIN]?
Answer: MIC [28]: ≤ 0.06 µg/mL; MIC [29]: ≤ 0.06 µg/mL; MIC [30]: ≤ 0.06 µg/mL; MIC [31]: ≤ 0.06 µg/mL

Question: For `C/C(=C\C(=O)OCCCCCCCCC(=O)O)C[C@@H]1OC[C@H](C[C@@H]2O[C@H]2[C@@H](C)[C@H](C)O)[C@@H](O)[C@H]1O` [MUPIROCIN], which MIC [32] is on record?
Answer: 0.1 µg/mL (≈ 0.2 µM)

Question: And the IC50 [33]?
Answer: 900 nM

Question: With `CO[C@@]12[C@H](COC(N)=O)C3=C(C(=O)C(C)=C(N)C3=O)N1C[C@@H]1N[C@@H]12` [MITOMYCIN] as the compound, how does the IC50 [34] read?
Answer: 1500 nM

Question: And the IC50 [35]?
Answer: 300 nM

Question: And the IC50 [36]?
Answer: 287 nM

Question: What does the source list for `CC(C)[C@H](N)C(=O)N[C@H](C(=O)O)[C@@H]1C[C@H](NC(=N)N)[C@@H]2CN21` (some centres not stated)?
Answer: CD50 [37]: 7.6 mg/kg; CD50 [38]: 10 mg/kg; CD50 [39]: 11 mg/kg

Question: What does the source list for `CC(C)(C)NC(=O)N[C@H](C(=O)N1C[C@H]2[C@@H]([C@H]1C(=O)NC(CC1CCC1)C(=O)C(N)=O)C2(C)C)C(C)(C)C` (some centres not stated) [BOCEPREVIR]?
Answer: Ki [4]: 14 nM; EC90 [5]: 350 nM
